The source of these data is patent US20230220387A1, “D-SERINE TRANSPORT MODIFIER AND SCREENING METHOD THEREOF, AND SCREENING METHOD OF D-SERINE TRANSPORTER PROTEIN” (Kagami Inc., priority 2019, published 2023).

One test relates to HEK293 cells. The test can be described thus: [3H]D-serine transport in HEK293 cells. It is filed as cell-based. To be noted: endogenous ASCT2. On the procedure:
(§1) The cell lines HEK293 and Flp-In TREx 293 were cultured at 37° C. in a 5% CO2 environment, using Dulbecco's Modified Eagle Medium (DMEM) containing 10% fetal bovine serum (FBS), 100 units/ml Penicillin G and 100 μg/ml streptomycin (P/S). The cells were seeded in a Poly-D-lysine coated 24-well plate at 6×10^4 cells/well. After culturing for 3 days in DMEM Medium containing 10% FBS and P/S, the cell were used for transport activity measurement. Before transport activity measurement, the cells were washed with transport activity measurement buffer (PBS+1 g/L D-glucose) prewarmed to 37° C. and incubated for 10 minutes at 37° C. in 500 μL of buffer. The transport activity measurement was initiated by addition of D-[^3H]serine-containing transport activity buffer at the indicated concentration. The reaction product produced after addition was incubated at 37° C. for the indicated time. The reaction was suspended by removing the D-[^3H]serine-containing transport activity buffer, and the product was washed 3 times with thoroughly cooled transport activity buffer. The cells were dissolved with 500 μL of 0.1 N NaOH and incubated for at least one hour. Protein concentration of the cell lysate was measured by BCA protein assay. The lysate was mixed with 1 mL of Emulsifier Safe (PerkinElmer, MA, USA) and the radioactivity of the lysate was measured with a β-scintillation counter (LSC-8000, Hitachi). In transport activity measurement for Na^+, HBSS (+Na^+: 125 mM NaCl, −Na^+: choline chloride, 4.8 mM KCl, 1.2 mM MgSO4, 1.2 mM KH2PO4, 1.3 mM CaCl2), 5.6 mM D-glucose and 25 mM HEPES was used instead of PBS. For the inhibition experiment, a non-radioactive labeled compound was included as the uptake substrate as shown in the drawing.

For another test, the target named is T1, ASCT2 (Homo sapiens, UniProt Q15758).
T1 construct: expressed in transfected cells; host or cells: HEK293 cells
T1 sequence (Q15758 1-541): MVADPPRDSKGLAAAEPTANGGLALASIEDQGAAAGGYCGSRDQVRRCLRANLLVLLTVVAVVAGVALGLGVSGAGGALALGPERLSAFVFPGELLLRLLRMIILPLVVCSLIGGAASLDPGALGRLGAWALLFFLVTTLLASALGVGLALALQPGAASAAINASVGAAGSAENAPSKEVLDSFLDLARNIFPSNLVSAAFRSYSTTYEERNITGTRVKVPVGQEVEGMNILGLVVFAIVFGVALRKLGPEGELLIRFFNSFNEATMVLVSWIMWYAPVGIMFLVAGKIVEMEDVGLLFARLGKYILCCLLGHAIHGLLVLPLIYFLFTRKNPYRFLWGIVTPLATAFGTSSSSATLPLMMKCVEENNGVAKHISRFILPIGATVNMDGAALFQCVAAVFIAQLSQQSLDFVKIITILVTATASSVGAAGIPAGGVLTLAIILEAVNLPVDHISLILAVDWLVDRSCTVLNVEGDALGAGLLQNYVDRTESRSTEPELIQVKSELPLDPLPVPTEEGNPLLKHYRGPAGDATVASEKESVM
The test can be described thus: [3H]D-serine transport in HEK293 cells transfected with ASCT2. It is filed as cell-based.

Test [1] concerns Flp-In TREx 293 cell line. The test can be described thus: D-[3H]serine uptake in Flp-In TREx 293 cell line in the presence of inhibitors. The class given is cell-based. To be noted: 10 minutes. On the procedure:
as §1

Test [2] relates to mouse brush border membrane vesicles (BBMV). In words: D-[3H]serine transport activity measurement with mouse BBMVs. The class given is biochemical. On the procedure:
Total mouse kidneys were extracted by perfusion using PBS buffer at pH 7.4, and then immediately frozen with liquid nitrogen and stored at −80° C. until use. The frozen kidneys were resuspended in buffer containing 20 mM Tris-HCl at pH 7.6, 250 mM mannitol, 1 mM EDTA and Complete EDTA-free protease inhibitor cocktail (Roche, Switzerland), and crushed using a PHYSCOTRON (Microtec Co., Ltd.). The sample was then homogenized using a Potter-Elvehjem homogenizer. After centrifugation at 1,000×g for 5 minutes at 4° C., the supernatant was centrifuged at 3,000×g for 5 minutes at 4° C. After centrifugation, the supernatant was mixed with 1 M MgCl2 at a final concentration of 11 mM MgCl2, and incubated on ice for 20 minutes. This was followed by centrifugation at 3,000×g for 15 minutes at 4° C., and then ultracentrifugation of the supernatant containing crude membrane vesicles at 438,000×g for 30 minutes at 4° C. The pellet remaining after ultracentrifugation (BBMVs) was suspended in buffer containing 20 mM Tris-HCl at pH 7.6 and 250 mM mannitol. The BBMVs were quantified using a BCA protein quantitation kit (Thermo Fisher Scientific). The BBMVs were cryopreserved at −80° C. until use. Before transport activity measurement, the cryopreserved BBMVs were thawed to allow introduction of potassium into the BBMVs, after which they were ultracentrifuged at 438,000×g for 30 minutes at 4° C., and the pellet was then suspended in buffer containing 10 mM Tris-HCl at pH 7.6, 100 mM KCl and 100 mM mannitol to a 5 mg/mL protein concentration, and the BBMV suspension was incubated on ice overnight. Before measurement of the transport activity, valinomycin was added to the BBMV sample to a final concentration of 5 μM and the mixture was incubated at room temperature for 30 minutes. […] The used filter was melted with Clear-sol I (Nacalai Tesque, Inc.) and the radioactivity on the filter was measured using a β-scintillation counter (LSC-8000, Hitachi).

Another test deals with T2, hSMCT1 (Homo sapiens, UniProt Q8N695).
T2 construct: A final pcDNA5-hSLC5A8_NM145913-3×FLAG positive clone was obtained and named “pcDNA5-hSLC5A8-3×FLAG”; expressed in transfected cells
T2 sequence (Q8N695 1-610): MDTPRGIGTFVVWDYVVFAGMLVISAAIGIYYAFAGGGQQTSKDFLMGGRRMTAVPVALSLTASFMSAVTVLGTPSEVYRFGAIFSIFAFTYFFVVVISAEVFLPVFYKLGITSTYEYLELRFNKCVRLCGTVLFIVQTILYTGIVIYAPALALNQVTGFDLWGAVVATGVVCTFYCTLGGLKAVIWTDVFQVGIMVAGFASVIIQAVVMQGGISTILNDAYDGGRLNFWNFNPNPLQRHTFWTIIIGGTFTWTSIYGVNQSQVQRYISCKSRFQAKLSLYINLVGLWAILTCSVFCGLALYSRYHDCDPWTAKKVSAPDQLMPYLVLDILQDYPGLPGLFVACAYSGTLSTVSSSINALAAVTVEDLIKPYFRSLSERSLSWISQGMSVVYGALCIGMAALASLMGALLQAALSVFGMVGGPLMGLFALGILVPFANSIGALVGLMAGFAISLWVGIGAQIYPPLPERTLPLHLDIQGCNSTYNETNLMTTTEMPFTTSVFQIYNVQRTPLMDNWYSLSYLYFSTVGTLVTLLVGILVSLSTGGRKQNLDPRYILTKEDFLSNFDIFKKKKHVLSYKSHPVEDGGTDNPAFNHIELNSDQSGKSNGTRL
In words: D-[3H]serine uptake in FlpIn293TR-hSLC5A8-3×FLAG stable cell line. It is filed as cell-based. To be noted: 20 μM D-[3H]serine, 10 minutes. On the procedure: (§2) The stable cell line FlpIn293 TR was seeded in a poly-D-lysine-coated 24-well plate at 5×10^4 cells/well (Mock) or 6×10^4 cells/well (hSLC5A8 and hSLC5A12 cells), and after 24 hours, 1 mg/L doxycycline hyclate was added to induce recombinant gene expression. The cells were continuously cultured for 2 days and transport activity measurement was conducted at 80% to 90% confluence. In an ASCT2 knockdown experiment, the seeded cells were transfected after 12 hours with ASCT2 siRNA at 10 pmol/well, using Lipofectamine 3000. Before transport activity measurement, the cells were washed 3 times with transport activity buffer (PBS+1 g/L D-glucose) warmed to 37° C. and incubated for 10 minutes at 37° C. in 500 μL of buffer. The transport activity measurement was initiated by addition of D-[^3H]serine-containing transport activity buffer at the indicated concentration. The reaction product produced after addition was incubated at 37° C. for the indicated time. The reaction was suspended by removing the D-[^3H] serine-containing transport activity buffer, and the product was washed 3 times with thoroughly cooled transport activity buffer. […] Protein concentration of the cell lysate was measured by BCA protein assay. The lysate was mixed with 1 mL of Emulsifier Safe (PerkinElmer, MA, USA) and the radioactivity of the lysate was measured with a β-scintillation counter (LSC-8000, Hitachi). […]

For the next test, the target named is T3, hSMCT2 (Homo sapiens, UniProt Q1EHB4).
T3 construct: expressed in transfected cells
T3 sequence (Q1EHB4 1-618): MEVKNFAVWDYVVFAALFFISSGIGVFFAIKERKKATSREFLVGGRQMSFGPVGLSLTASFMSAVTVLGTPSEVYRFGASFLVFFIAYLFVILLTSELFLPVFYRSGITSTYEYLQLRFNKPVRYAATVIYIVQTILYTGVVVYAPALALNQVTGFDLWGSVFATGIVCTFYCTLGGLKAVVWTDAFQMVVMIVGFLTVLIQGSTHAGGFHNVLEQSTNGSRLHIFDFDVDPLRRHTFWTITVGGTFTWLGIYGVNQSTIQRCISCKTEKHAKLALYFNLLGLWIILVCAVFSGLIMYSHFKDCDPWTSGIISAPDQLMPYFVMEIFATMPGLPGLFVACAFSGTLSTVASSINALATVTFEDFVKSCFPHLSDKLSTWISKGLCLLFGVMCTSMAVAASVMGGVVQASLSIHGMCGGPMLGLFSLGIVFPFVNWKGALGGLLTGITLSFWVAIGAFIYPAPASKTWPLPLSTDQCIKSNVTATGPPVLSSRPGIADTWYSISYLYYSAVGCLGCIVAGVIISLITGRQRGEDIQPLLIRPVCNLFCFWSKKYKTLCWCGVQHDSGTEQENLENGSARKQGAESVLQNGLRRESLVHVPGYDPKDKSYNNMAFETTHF
In words: D-[3H]serine uptake in FlpIn293TR-hSLC5A12-3×FLAG stable cell line. It is filed as cell-based. To be noted: 20 μM D-[3H]serine, 10 minutes. On the procedure:
as §2

For test [3], the system named is FlpIn293TR-hSLC5A12-3×FLAG (SMCT2)-stable cell line. In words: Toxicity test (XTT) in SMCT2-stable cell line. It is filed as cell-based. To be noted: 500 μM ibuprofen added with D-serine to SMCT2 cells. Here is the method:
(§3) A toxicity test for stable cells was carried out using an FlpIn293TR-stable cell line. The cells were seeded in a poly-D-lysine-coated 96-well plate at 6.5×10^3 cells/well (Mock) and 8×10^3 cells/well (hSLC5A8 and hSLC5A12 cells), while in antibiotic-free DMEM+dialyzed FBS medium. After 24 hours, they were treated with L- or D-serine at different concentrations and 1 mg/L of doxycycline hyclate was added to induce recombination gene expression. For the ASCT2 knockdown experiment, the seeded cells were transfected after 12 hours with ASCT2 siRNA at 2 pmol/well, using Lipofectamine 3000. The effect of ibuprofen was analyzed by simultaneous addition with D-serine treatment. The cells were cultured for 2 days to 80% confluence. The proliferated cell count was determined by XTT measurement in the same manner as described above.
On the technique in general: Tetrazolium dyes change colour on reduction, which living cells bring about.

For test [4], the system named is FlpIn293TR-hSLC5A8-3×FLAG (SMCT1)-stable cell line. In words: Toxicity test (XTT) in SMCT1-stable cell line. The class given is cell-based. The conditions noted are these: 500 μM ibuprofen added with D-serine to SMCT1 cells. Here is the method:
as §3

Protocol for ASCT2: The cell lines HEK293 and Flp-In TREx 293 were cultured at 37° C. in a 5% CO2 environment, using Dulbecco's Modified Eagle Medium (DMEM) containing 10% fetal bovine serum (FBS), 100 units/ml Penicillin G and 100 μg/ml streptomycin (P/S). The cells were seeded in a Poly-D-lysine coated 24-well plate at 6×10^4 cells/well. After culturing for 3 days in DMEM Medium containing 10% FBS and P/S, the cell were used for transport activity measurement. Before transport activity measurement, the cells were washed with transport activity measurement buffer (PBS+1 g/L D-glucose) prewarmed to 37° C. and incubated for 10 minutes at 37° C. in 500 μL of buffer. The transport activity measurement was initiated by addition of D-[^3H]serine-containing transport activity buffer at the indicated concentration. The reaction product produced after addition was incubated at 37° C. for the indicated time. The reaction was suspended by removing the D-[^3H]serine-containing transport activity buffer, and the product was washed 3 times with thoroughly cooled transport activity buffer. […] Protein concentration of the cell lysate was measured by BCA protein assay. The lysate was mixed with 1 mL of Emulsifier Safe (PerkinElmer, MA, USA) and the radioactivity of the lysate was measured with a β-scintillation counter (LSC-8000, Hitachi). […]

As for `NCCCC(=O)O` [GABA, γ-aminobutyric acid], the “[3H]D-serine transport” value is given as “inhibit” in the test with HEK293 cells and “inhibited” at ASCT2.

For the molecule `N[C@@H](CCC(=O)Nc1ccc([N+](=O)[O-])cc1)C(=O)O` [GPNA, L-γ-glutamyl-p-nitroanilide], the “Uptake of D-[3H]serine” value in test [1] is given as “inhibited”.

For the molecule `CSCC[C@H](N)C(=O)O` [L-methionine], the “Uptake of D-[3H]serine” value in test [1] is on record as “inhibited”. Also, the “[3H]D-serine transport” value in the test on HEK293 cells is listed as “inhibited”.

Take `C[C@@H](O)[C@H](N)C(=O)O` [L-threonine]: in test [2] (2 mM L-threonine, 10 μM D-[3H]serine, measuring time 30 seconds), the uptake activity inhibited result is recorded as “About 70%”. Further, the “Uptake of D-[3H]serine” value in test [1] is on record as “inhibited”. Also, the “[3H]D-serine transport” value in the test with HEK293 cells is recorded as “inhibited”.

`CC(=O)Oc1ccccc1C(=O)O` [acetylsalicylic acid]: the “D-[3H]serine transport” value at hSMCT1 and on hSMCT2 was “inhibited” in each case.

With `CC(C)Cc1ccc(C(C)C(=O)O)cc1` (centres unmarked) [ibuprofen], the “D-[3H]serine transport activity” value in test [2] (1 and 3 mM ibuprofen, 50 μM D-[3H]serine, 1 minute) is given as “strongly inhibited”. Moreover, the “D-[3H]serine transport” value on hSMCT1 and on hSMCT2 was “inhibited” throughout. Besides, the “effect of ibuprofen on D-serine effect on cell proliferation” value in test [3] and in test [4] was “reduced the D-serine effect to the same level as the Mock cells” throughout.

With `O=C(O)c1cccnc1` [nicotinic acid], the “Na+-dependent uptake inhibited” value in test [2] (1 mM nicotinic acid, 10 μM D-[3H]serine, measuring time 30 seconds) was “approximately 30%”.

As to S-benzyl-L-cystine [Benzyl-Cys], the “Uptake of D-[3H]serine” value in test [1] was “inhibited”.
